Experimental data: ChEMBL document CHEMBL1135965, “A novel dicyanotriterpenoid, 2-cyano-3,12-dioxooleana-1,9(11)-dien-28-onitrile, active at picomolar concentrations for inhibition of nitric oxide production” (Bioorg Med Chem Lett, 2002)

Organism: Mus musculus
Assay: Inhibitory activity against production of nitric oxide induced by interferon gamma in mouse macrophages
Type: functional, organism-based

CCCN(CCC)C(=O)[C@]12CCC(C)(C)CC1C1C(=O)C=C3[C@@]4(C)C=C(C#N)C(=O)C(C)(C)[C@@H]4CC[C@@]3(C)[C@]1(C)CC2 (stereo not given in full)
IC50: 32.9 nM

CCCCCCNC(=O)[C@]12CCC(C)(C)CC1C1C(=O)C=C3[C@@]4(C)C=C(C#N)C(=O)C(C)(C)[C@@H]4CC[C@@]3(C)[C@]1(C)CC2 (stereo not given in full)
IC50: 14.9 nM

CC1(C)CC[C@]2(C(=O)n3cccn3)CC[C@]3(C)C(C(=O)C=C4[C@@]5(C)C=C(C#N)C(=O)C(C)(C)[C@@H]5CC[C@]43C)C2C1 (stereo not given in full)
IC50: 12 nM

CCOC(=O)[C@]12CCC(C)(C)CC1C1C(=O)C=C3[C@@]4(C)C=C(C(=O)O)C(=O)C(C)(C)[C@@H]4CC[C@@]3(C)[C@]1(C)CC2 (stereo not given in full)
IC50: 7.93 nM

CC1(C)CC[C@]2(C(=O)OCc3ccccc3)CC[C@]3(C)C(C(=O)C=C4[C@@]5(C)C=C(C#N)C(=O)C(C)(C)[C@@H]5CC[C@]43C)C2C1 (stereo not given in full)
IC50: 4.35 nM

CC1(C)CC[C@]2(C(=O)N3CCCCC3)CC[C@]3(C)C(C(=O)C=C4[C@@]5(C)C=C(C#N)C(=O)C(C)(C)[C@@H]5CC[C@]43C)C2C1 (stereo not given in full)
IC50: 0.95 nM

CC1(C)CC[C@]2(C#N)CC[C@]3(C)C(C(=O)C=C4[C@@]5(C)C=C(C(=O)O)C(=O)C(C)(C)[C@@H]5CC[C@]43C)C2C1 (stereo not given in full)
IC50: 1.68 nM

CC1(C)CC[C@]2(C(=O)NCc3ccccc3)CC[C@]3(C)C(C(=O)C=C4[C@@]5(C)C=C(C#N)C(=O)C(C)(C)[C@@H]5CC[C@]43C)C2C1 (stereo not given in full)
IC50: 9.2 nM

CC1(C)CC[C@]2(C(=O)OCC3CC3)CC[C@]3(C)C(C(=O)C=C4[C@@]5(C)C=C(C#N)C(=O)C(C)(C)[C@@H]5CC[C@]43C)C2C1 (stereo not given in full)
IC50: 4.45 nM

CC1(C)CC[C@]2(C(=O)N3CCOCC3)CC[C@]3(C)C(C(=O)C=C4[C@@]5(C)C=C(C#N)C(=O)C(C)(C)[C@@H]5CC[C@]43C)C2C1 (stereo not given in full)
IC50: 2.4 nM

CCCCCCCCOC(=O)[C@]12CCC(C)(C)CC1C1C(=O)C=C3[C@@]4(C)C=C(C#N)C(=O)C(C)(C)[C@@H]4CC[C@@]3(C)[C@]1(C)CC2 (stereo not given in full)
IC50: 60.4 nM

CC1(C)CC[C@]2(C#N)CC[C@]3(C)C(C(=O)C=C4[C@@]5(C)C=C(C#N)C(=O)C(C)(C)[C@@H]5CC[C@]43C)C2C1 (stereo not given in full) [CDDO-CN]
IC50: 0.0035 nM

CCOC(=O)[C@]12CCC(C)(C)CC1C1C(=O)C=C3[C@@]4(C)C=C(C#N)C(=O)C(C)(C)[C@@H]4CC[C@@]3(C)[C@]1(C)CC2 (stereo not given in full)
IC50: 0.8 nM

CC1(C)CC[C@]2(C(=O)N3CCCC3)CC[C@]3(C)C(C(=O)C=C4[C@@]5(C)C=C(C#N)C(=O)C(C)(C)[C@@H]5CC[C@]43C)C2C1 (stereo not given in full)
IC50: 0.8 nM

CC1(C)CC[C@]2(C(=O)N3CCC(N4CCCCC4)CC3)CC[C@]3(C)C(C(=O)C=C4[C@@]5(C)C=C(C#N)C(=O)C(C)(C)[C@@H]5CC[C@]43C)C2C1 (stereo not given in full)
IC50: 1 nM

CC1(C)CC[C@]2(C(=O)n3ccnc3)CC[C@]3(C)[C@H](C(=O)C=C4[C@@]5(C)C=C(C#N)C(=O)C(C)(C)[C@@H]5CC[C@]43C)[C@@H]2C1
IC50: 0.014 nM

CC1(C)CC[C@]2(C(=O)Nc3ccccc3)CC[C@]3(C)C(C(=O)C=C4[C@@]5(C)C=C(C#N)C(=O)C(C)(C)[C@@H]5CC[C@]43C)C2C1 (stereo not given in full)
IC50: 28.6 nM

CCCCOC(=O)[C@]12CCC(C)(C)CC1C1C(=O)C=C3[C@@]4(C)C=C(C#N)C(=O)C(C)(C)[C@@H]4CC[C@@]3(C)[C@]1(C)CC2 (stereo not given in full)
IC50: 6.65 nM

CN(C)C(=O)[C@]12CCC(C)(C)CC1C1C(=O)C=C3[C@@]4(C)C=C(C#N)C(=O)C(C)(C)[C@@H]4CC[C@@]3(C)[C@]1(C)CC2 (stereo not given in full)
IC50: 1.55 nM

CC1(C)CC[C@]2(C(=O)O)CC[C@]3(C)[C@H](C(=O)C=C4[C@@]5(C)C=C(C#N)C(=O)C(C)(C)[C@@H]5CC[C@]43C)[C@@H]2C1 [BARDOXOLONE]
IC50: 0.44 nM

C=CCOC(=O)[C@]12CCC(C)(C)CC1C1C(=O)C=C3[C@@]4(C)C=C(C#N)C(=O)C(C)(C)[C@@H]4CC[C@@]3(C)[C@]1(C)CC2 (stereo not given in full)
IC50: 1.33 nM

CC1(C)CC[C@]2(C(N)=O)CC[C@]3(C)C(C(=O)C=C4[C@@]5(C)C=C(C#N)C(=O)C(C)(C)[C@@H]5CC[C@]43C)C2C1 (stereo not given in full)
IC50: 0.098 nM

CNC(=O)[C@]12CCC(C)(C)CC1C1C(=O)C=C3[C@@]4(C)C=C(C#N)C(=O)C(C)(C)[C@@H]4CC[C@@]3(C)[C@]1(C)CC2 (stereo not given in full)
IC50: 0.58 nM

CC(=O)OC[C@H]1O[C@@H](OC(=O)[C@]23CCC(C)(C)CC2C2C(=O)C=C4[C@@]5(C)C=C(C#N)C(=O)C(C)(C)[C@@H]5CC[C@@]4(C)[C@]2(C)CC3)[C@H](OC(C)=O)[C@H](OC(C)=O)[C@@H]1OC(C)=O (stereo not given in full)
IC50: 0.07 nM

CCCNC(=O)[C@]12CCC(C)(C)CC1C1C(=O)C=C3[C@@]4(C)C=C(C#N)C(=O)C(C)(C)[C@@H]4CC[C@@]3(C)[C@]1(C)CC2 (stereo not given in full)
IC50: 1.5 nM

COC(=O)[C@]12CCC(C)(C)CC1C1C(=O)C=C3[C@@]4(C)C=C(C(=O)O)C(=O)C(C)(C)[C@@H]4CC[C@@]3(C)[C@]1(C)CC2 (stereo not given in full)
IC50: 9.55 nM

COC(=O)[C@]12CCC(C)(C)C[C@H]1[C@H]1C(=O)C=C3[C@@]4(C)C=C(C#N)C(=O)C(C)(C)[C@@H]4CC[C@@]3(C)[C@]1(C)CC2 [BARDOXOLONE METHYL]
IC50: 0.11 nM

CC1(C)CC[C@]2(C(=O)O[C@@H]3O[C@H](CO)[C@@H](O)[C@H](O)[C@H]3O)CC[C@]3(C)C(C(=O)C=C4[C@@]5(C)C=C(C#N)C(=O)C(C)(C)[C@@H]5CC[C@]43C)C2C1 (stereo not given in full)
IC50: 10.1 nM

CC1(C)CC[C@]2(C(=O)NN)CC[C@]3(C)C(C(=O)C=C4[C@@]5(C)C=C(C#N)C(=O)C(C)(C)[C@@H]5CC[C@]43C)C2C1 (stereo not given in full)
IC50: 0.26 nM

CC1(C)CC[C@]2(C(=O)O)CC[C@]3(C)C(=CC[C@@H]4[C@@]5(C)CC[C@H](O)C(C)(C)[C@@H]5CC[C@]43C)[C@@H]2C1 [OLEANOLIC_ACID]
IC50: > 40000 nM
